Measurements taken from article PMC6792352, “Limited Chemical Structural Diversity Found to Modulate Thyroid Hormone Receptor in the Tox21 Chemical Library” (Environmental Health Perspectives, 2019).
Counter-ions that a name gives are not always drawn. Like-named read-outs stand apart in the source and are kept apart here. Starred links: 1 amine or outer side, 2 acyl side, 3 side chain; linkers in the order of their positions; H or OH if unused. Positions of bridges follow the written chain, without caps; N, C: chain ends. Non-standard residues stand in square brackets, D forms with d. Residues, ends and D or L forms follow the SMILES beside them. Chains are numbered I, II in the order given. Actinocin(9to1) = Cc1c2oc3c(C)ccc(C(=O)[*:1])c3nc-2c(C(=O)[*:2])c(N)c1=O; NMeV = CN[C@H](C(=O)O)C(C)C; Sar = CNCC(=O)O

System: GH3-TRE-Luc cell line
Details: read-out: AC50 (uM) modified / 1000, viability, 1 nM T3 present, 24 h

With `CC/C(=C(\c1ccccc1)c1ccc(OCCN(C)C)cc1)c1ccccc1` [Tamoxifen] the CC50 (Tox21_110001=Tox21_201243) was 13.9 µM and the CC50 (Tox21_110001=Tox21_300539) was 8.55 µM.

For `Oc1cccc2cccnc12` [8-Quinolinol salicylic acid (1:1)], the CC50 (Tox21_110001=Tox21_110005) was 10.3 µM.

For `CN(C)c1ccc2nc3ccc(=[N+](C)C)cc-3sc2c1` [Methylene blue], the CC50 (Tox21_110001=Tox21_112497) was 21.1 µM and the CC50 (Tox21_110001=Tox21_302087) was 45.4 µM.

`CCCCCCCCCCCCN` [Dodecylamine hydrochloride] gave a CC50 (Tox21_110001=Tox21_301702) of 19.6 µM.

`CCCC[n+]1ccc(C)cc1` [1-Butyl-4-methylpyridinium chloride] was tested, and the CC50 (Tox21_110001=Tox21_202685) was 39.2 µM.

`Cc1c2oc3c(C)ccc(C(=O)N[C@@H]4C(=O)N[C@H](C(C)C)C(=O)N5CCC[C@H]5C(=O)N(C)CC(=O)N(C)[C@@H](C(C)C)C(=O)O[C@@H]4C)c3nc-2c(C(=O)N[C@@H]2C(=O)N[C@H](C(C)C)C(=O)N3CCC[C@H]3C(=O)N(C)CC(=O)N(C)[C@@H](C(C)C)C(=O)O[C@@H]2C)c(N)c1=O` [Actinomycin D] (I: T[dV]P[Sar][NMeV] / II: T[dV]P[Sar][NMeV]; ester I:1-I:C, II:1-II:C; linker I:N-II:N via Actinocin(9to1)) was tested, and the CC50 (Tox21_110001=Tox21_111997) was 0.00788 µM and the CC50 (Tox21_110001=Tox21_202482) was 0.000903 µM.

Compound `O=C(OC[C@H]1O[C@@H](OC(=O)c2cc(O)c(O)c(OC(=O)c3cc(O)c(O)c(O)c3)c2)[C@H](OC(=O)c2cc(O)c(O)c(OC(=O)c3cc(O)c(O)c(O)c3)c2)[C@@H](OC(=O)c2cc(O)c(O)c(OC(=O)c3cc(O)c(O)c(O)c3)c2)[C@@H]1OC(=O)c1cc(O)c(O)c(OC(=O)c2cc(O)c(O)c(O)c2)c1)c1cc(O)c(O)c(OC(=O)c2cc(O)c(O)c(O)c2)c1` [Tannic acid] has a CC50 (Tox21_110001=Tox21_111422) of 3.05 µM and a CC50 (Tox21_110001=Tox21_300079) of 15.7 µM.

`COc1ccc(CCN2CCC(Nc3nc4ccccc4n3Cc3ccc(F)cc3)CC2)cc1` [Astemizole] showed a CC50 (Tox21_110001=Tox21_110680) of 4.42 µM and a CC50 (Tox21_110001=Tox21_200095) of 0.889 µM.

Work on `Nc1nc(Cl)nc2c1ncn2[C@H]1C[C@H](O)[C@@H](CO)O1` [Cladribine] yielded a CC50 (Tox21_110001=Tox21_110834) of 0.386 µM and a CC50 (Tox21_110001=Tox21_300596) of 0.166 µM.

Compound `O=C(O)CS` [Ammonium thioglycolate] has a CC50 (Tox21_110001=Tox21_202751) of 58.7 µM.

`CCCCCCCCCCn1cc[n+](C)c1` [1-Decyl-3-methylimidazolium trifluoromethanesulfonate] was tested, and the CC50 (Tox21_110001=Tox21_200593) was 6.68 µM.

Compound `CCc1nc(N)nc(N)c1-c1ccc(Cl)cc1` [Pyrimethamine] has a CC50 (Tox21_110001=Tox21_201834) greater than 90 µM and a CC50 (Tox21_110001=Tox21_300129) of 42.7 µM.

`O=C1C2CC=CCC2C(=O)N1SC(Cl)(Cl)Cl` (stereo not drawn) [Captan] gave a CC50 (Tox21_110001=Tox21_111065) of 4.99 µM, a CC50 (Tox21_110001=Tox21_201276) of 76 µM and a CC50 (Tox21_110001=Tox21_300772) of 2.54 µM.

`C[C@]12CC[C@@H]3c4ccc(O)cc4CC[C@H]3[C@@H]1CC[C@@H]2OC(=O)CCC1CCCC1` [Estradiol cypionate] was tested, and the CC50 (Tox21_110001=Tox21_110003) was 32.5 µM, the CC50 (Tox21_110001=Tox21_112331) was 43.4 µM and the CC50 (Tox21_110001=Tox21_301818) was 86.1 µM.

`Nc1ccn([C@@H]2O[C@H](CO)[C@@H](O)[C@@H]2O)c(=O)n1` [Cytarabine] gave a CC50 (Tox21_110001=Tox21_111203) of 0.708 µM and a CC50 (Tox21_110001=Tox21_301971) of 0.237 µM.

`CC[n+]1ccccc1` [1-Ethylpyridinium bromide] was tested, and the CC50 (Tox21_110001=Tox21_202695) was 32.7 µM.

With `O=c1[nH]cc(F)c(=O)[nH]1` [5-Fluorouracil] the CC50 (Tox21_110001=Tox21_202335) was 16.7 µM and the CC50 (Tox21_110001=Tox21_300112) was 30.2 µM.

Compound `CCOc1ccc2c(c1)C(C)=CC(C)(C)N2` [Ethoxyquin] has a CC50 (Tox21_110001=Tox21_110388) of 39.8 µM.

With `CCn1c2ccccc2c2cc(N)ccc21` [3-Amino-9-ethylcarbazole] the CC50 (Tox21_110001=Tox21_303548) was 93.2 µM.

In the case of `COc1cc([C@@H]2c3cc4c(cc3[C@H](O)[C@H]3COC(=O)[C@H]23)OCO4)cc(OC)c1OC` [Podofilox], the CC50 (Tox21_110001=Tox21_202922) was 0.0227 µM.

With `Oc1ccc(O)cc1` [Hydroquinone] the CC50 (Tox21_110001=Tox21_110169) was 16 µM, the CC50 (Tox21_110001=Tox21_202345) was 32.2 µM and the CC50 (Tox21_110001=Tox21_300015) was 21.9 µM.

For `CN(C)c1ccc2nc3ccc(=[N+](C)C)cc-3sc2c1` [Methylene Blue trihydrate], the CC50 (Tox21_110001=Tox21_202525) was 27.1 µM.

With `NCCNc1cccc2ccccc12` [N-(1-Naphthyl)ethylenediamine dihydrochloride] the CC50 (Tox21_110001=Tox21_111184) was 10.9 µM, the CC50 (Tox21_110001=Tox21_201928) was 37 µM and the CC50 (Tox21_110001=Tox21_302783) was 26 µM.

In the case of `O=C1CN(/N=C/c2ccc(-c3ccc([N+](=O)[O-])cc3)o2)C(O)=N1` [Dantrolene sodium], the CC50 (Tox21_110001=Tox21_112013) was 11.2 µM and the CC50 (Tox21_110001=Tox21_301997) was 48.2 µM.

`CC#C[C@]1(O)CC[C@H]2[C@@H]3CCC4=CC(=O)CCC4=C3[C@@H](c3ccc(N(C)C)cc3)C[C@@]21C` [Mifepristone] was tested, and the CC50 (Tox21_110001=Tox21_110952) was 9.81 µM and the CC50 (Tox21_110001=Tox21_301841) was 36.7 µM.

`CCCCCCCCCCCCCCn1cc[n+](C)c1` [1-Methyl-3-tetradecylimidazolium chloride] was tested, and the CC50 (Tox21_110001=Tox21_202660) was 8.43 µM.

`C=C1C(CCl)(CCl)C2(Cl)C(Cl)C(Cl)C1(Cl)C2(Cl)Cl` (stereo not drawn) [Toxaphene] was tested, and the CC50 (Tox21_110001=Tox21_111173) was 5.43 µM and the CC50 (Tox21_110001=Tox21_200912) was 23.5 µM.

Work on `Cc1c(C)c2c(c(C)c1OC(=O)CCC(=O)O)CC[C@@](C)(CCC[C@H](C)CCC[C@H](C)CCCC(C)C)O2` [d-alpha-Tocopheryl succinate] yielded a CC50 (Tox21_110001=Tox21_200568) of 20 µM.

`COc1cc2c(c(OC)c1OC)-c1c(cc3c(c1OC)OCO3)C[C@H](C)[C@](C)(O)C2` [Gomisin A] gave a CC50 (Tox21_110001=Tox21_113433) of 22.9 µM.

`CC1CC(OC(=O)c2ccccc2O)CC(C)(C)C1` (stereo not drawn) [3,3,5-Trimethylcyclohexyl salicylate] gave a CC50 (Tox21_110001=Tox21_111174) of 42.4 µM and a CC50 (Tox21_110001=Tox21_303082) of 72.7 µM.
